“Also recorded” adds a separate entry of the source.
Experiments:
C57BL/6J mice = experiment: Adaptive vs maladaptive (PTSD-like) fear memory, fear conditioning procedure; assay type: in vivo
From the text: Surgical procedure. Male C57BL/6J mice {n=20 in Experiment 1 (FIGS. 3a-d), n=75 in Experiment 2 (FIG. 4), n=40 in Experiment 3 (FIGS. 5a-d) and n=48 in Experiment 4 (FIGS. 5e-h)} 3-4 months old (Charles River Laboratory, France) were used. Mice were surgically-implanted bilaterally 1 mm above the dorsal hippocampus (A/P, -2 mm; M/L, ±1.3 mm; D/V, 0.9 mm; relative to dura and bregma) following to Franklin and Paxinos’s mouse brain atlas (25) then allowed to recover for 8 days before the behavioral experiments.
Adaptive vs maladaptive (PTSD-like) fear memory. […] In contrast, Cort-injected mice will display a maladaptive (PTSD-like) memory attested by an abnormally high fear response to the irrelevant tone (cue-based hypermnesia) together with a decreased conditioned fear to the conditioning context (contextual amnesia) (5). • Memory tests - After fear conditioning, each animal was returned to its home cage and 24 h later, all mice were submitted to two memory tests during which freezing behavior, defined as a lack of any movement except for respiratory-related movements (29), was measured and used as an index of conditioned fear.
Drug injections. Immediately after the acquisition of fear conditioning, mice were randomly divided into groups firstly according to first their systemic injection of Cort and secondly their specific intra-hippocampal infusion. […] Vehicle (NaCl 0.9%, n=8), 2. […] Vehicles (aCSF + NaCl 0.9%, n=15), 2. […] Vehicles (aCSF + NaCl 0.9%, n=8), 2. […] Vehicles (aCSF + DMSO, n=12), 2.
PAI-1 and BDNF were diluted in artificial CSF (aCSF) and Tiplaxtinin in 1.6 % dimethyl sulfoxide (DMSO) and then diluted in aCSF. Bilateral infusions of 0.3 µl/side were administered into the dorsal hippocampus immediately after acquisition of fear conditioning at a constant rate (0.1 µl/min).

[1] = system: dorsal hippocampal slices; experiment: Protein expression in dorsal hippocampal slices incubated with corticosterone (western blot); assay type: cell-based, Sprague-Dawley rats
Experimental: Briefly, adult male Sprague-Dawley rats (2-3 months old n=18, Charles River Laboratory, France) were used. Rats were then anesthetized with isoflurane and transcardially perfused with nearly frozen modified artificial cerebrospinal fluid (CSF) with 3 mM kynurenic acid. The modified CSF for perfusion contained: (in mM) 87 NaCl, 75 Sucrose, 25 Glucose, 5 KCl, 21 MgCl2, 0.5 CaCl2 and 1.25 NaH2PO4. After perfusion, the brains were quickly removed and sliced (300 µm) in the coronal plane using a vibratome (Campden Instruments, UK). Immediately after cutting, slices were stored for 40 min at 32° C. in CSF ((in mM): 130 NaCl, 11 Glucose, 2.5 KCl, 2.4 MgCl2, 1.2 CaCl2, 23 NaHCO3, 1.2 NaH2PO4), equilibrated with 95% O2 / 5% CO2 then stored at room temperature for the rest of the experiment. […] Dorsal hippocampi were isolated, and proteins were extracted as previously described (14;16).
Protein extraction from brain tissues and immunoblotting analysis. A detailed description of protein extraction and immunoblotting analysis has been reported previously (14-16;20;21). Briefly, protein sample extracts from PC12 cells and mouse and rat hippocampi were performed in RIPA buffer containing protease and phosphatase inhibitors (#P8340 and #P0044, Sigma, USA) before being subjected to immunoblotting experiments. […] Rabbit polyclonal anti-PAI-1 antibodies were from Lifespan Biosciences (LSBio#C81062, 1/1000, WA, USA) and Epitomics (#3917-1, 1/3000, CA, USA), anti-tPA (#T5600-05G; 1/5000) was from US Biologicals (MA, USA), anti-Erk1/2^MAPK (#06-182; 1/50000) was from Millipore (MA, USA), anti-Phospho-Erk1/2^MAPK (#9101S; 1/1000) was from CST (MA, USA). Rabbit monoclonal antibodies anti-Phospho-Erk1/2^MAPK (#4370; 1/5000) was from CST (MA, USA), anti-Phospho-TrkB (#2149-1; 1/5000) was from Epitomics (CA, USA), anti-TrkB (#610101; 1/2000) was from BD Biosciences (NJ, USA). Mouse monoclonal anti-Neuronal Class III β-Tubulin (TUJ1) (#MMS-435P; 1/20000) was from Eurogentec (Belgium), anti-α-tubulin (#N356, 1/50000) was from Amersham Life Sciences (Del, USA). CST provided secondary antibodies: anti-rabbit IgG, HRP-linked antibody (#7074, 1/5000) and anti-mouse IgG, HRP-linked antibody (#7076, 1/20000). In all experiments, βIII-tubulin or α-tubulin measures were used as a loading control. X-Ray films (Kodak, USA) were quantified by densitometry (optical density; OD) using a GS-800 scanner coupled with Quantity One software (Bio-Rad, CA, USA).

PC12 cells = experiment: PAI-1 expression in PC12 cells treated with corticosterone (qPCR, western blot); assay type: cell-based, rat; conditions: Cort 100 and 1000 nM, 3 h
Experimental: Chemicals. […] Millipore (USA) provided the recombinant human BDNF (CAS Nb 218441-99-7, #GF029, 100 ng/side) and tPA inhibitor; stable recombinant mutant of human Type 1 Plasminogen Activator Inhibitor (PAI-1; CAS Nb: 140208-23-7, #528208, ranging from 30 to 240 ng/side) (16;18). The small-molecule inhibitor of PAI-1 activity Tiplaxtinin (PAI-039; CAS Nb: 393105-53-8, #1383, 5 ng/side) was provided by Axon MEDCHEM (The Netherlands).
Cell culture. PC12 cell line (ATCC CRL-1721) derived from a transplantable rat pheochromocytoma was used (14;16). […]
Quantitative PCR analysis. […] RNA was processed and analyzed using an adapted version of published methods (23). cDNA was synthesized from 2 µg of total RNA using RevertAid Premium Reverse Transcriptase (Fermentas, Thermo Fisher Scientific, USA) and primed with oligo-dT primers (Fermentas, Thermo Fisher Scientific, USA) and random primers (Fermentas, Thermo Fisher Scientific, USA). qPCR was perfomed using a LightCycler® 480 Real-Time PCR System (Roche, Meylan, France). qPCR reactions were done in duplicate for each sample, using transcript-specific primers, cDNA (4 ng) and LightCycler 480 SYBR Green I Master (Roche) in a final volume of 10 µl. The PCR data were exported and analyzed in a computer-based tool (Gene Expression Analysis Software Environment) developed at the Neurocentre Magendie (France). […]

rat [2] = conditions: cited from earlier work
rat [3] = conditions: in vivo; cited from earlier work
rat PAI-1 = target: T1, rat PAI-1 (Rattus norvegicus, UniProt P20961); conditions: cited from earlier work
T1 sequence (P20961 24-402): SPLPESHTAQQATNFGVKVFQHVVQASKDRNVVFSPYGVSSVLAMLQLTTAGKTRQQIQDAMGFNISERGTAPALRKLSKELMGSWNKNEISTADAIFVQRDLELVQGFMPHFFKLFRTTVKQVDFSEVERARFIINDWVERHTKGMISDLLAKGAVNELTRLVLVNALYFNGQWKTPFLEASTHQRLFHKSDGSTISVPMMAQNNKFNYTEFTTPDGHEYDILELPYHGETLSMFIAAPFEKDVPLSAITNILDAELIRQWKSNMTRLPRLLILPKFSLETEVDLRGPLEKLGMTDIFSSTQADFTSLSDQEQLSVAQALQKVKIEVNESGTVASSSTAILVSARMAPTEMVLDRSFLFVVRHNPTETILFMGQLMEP

mouse PAI-1 = target: T2, mouse PAI-1 (Mus musculus, UniProt P22777); conditions: cited from earlier work
T2 sequence (P22777 23-402): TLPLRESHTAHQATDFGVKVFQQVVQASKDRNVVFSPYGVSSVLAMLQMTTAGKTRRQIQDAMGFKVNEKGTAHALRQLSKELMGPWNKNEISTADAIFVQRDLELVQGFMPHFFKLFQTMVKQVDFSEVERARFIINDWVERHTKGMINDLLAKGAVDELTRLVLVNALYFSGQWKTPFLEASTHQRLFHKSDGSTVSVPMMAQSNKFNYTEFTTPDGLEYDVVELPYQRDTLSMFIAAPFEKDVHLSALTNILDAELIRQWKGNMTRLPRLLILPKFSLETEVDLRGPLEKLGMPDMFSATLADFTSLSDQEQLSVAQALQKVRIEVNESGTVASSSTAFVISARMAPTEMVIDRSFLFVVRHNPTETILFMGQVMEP

PAI-1 = PAI-1 (Homo sapiens, UniProt P05121); conditions: dual mechanism of action; cited from earlier work
Chain of PAI-1 (P05121 24-402, species assumed): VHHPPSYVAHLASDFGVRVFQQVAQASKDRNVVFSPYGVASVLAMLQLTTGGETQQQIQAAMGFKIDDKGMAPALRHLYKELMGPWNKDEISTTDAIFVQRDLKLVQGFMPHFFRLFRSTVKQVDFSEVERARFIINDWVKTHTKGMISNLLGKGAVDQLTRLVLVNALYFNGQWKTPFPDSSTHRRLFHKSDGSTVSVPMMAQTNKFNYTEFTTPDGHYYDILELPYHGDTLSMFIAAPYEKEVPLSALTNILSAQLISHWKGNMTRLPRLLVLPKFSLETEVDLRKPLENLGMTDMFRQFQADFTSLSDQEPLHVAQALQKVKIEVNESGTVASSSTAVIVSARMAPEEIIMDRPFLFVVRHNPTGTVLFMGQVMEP

[4] = cited from earlier work
[5] = system: TGF-B1-induced lung fibrosis; conditions: in vivo; cited from earlier work
nonhuman primates = conditions: cited from earlier work
rats = conditions: cited from earlier work
[6] = in vivo; cited from earlier work
[7] = system: plasminogen activator inhibitor type 1 (PAI-1); conditions: in vivo; cited from earlier work

With C[C@]12C[C@H](O)[C@H]3[C@@H](CCC4=CC(=O)CC[C@@]43C)[C@@H]1CC[C@@H]2C(=O)CO [Cort, corticosterone] the PTSD-like memory impairments (C57BL/6J mice; Cort 2 mg/kg i.p. immediately after conditioning) was “PTSD-like memory impairments appeared”, the “tPA, P-TrkB and P-Erk1/2MAPK proteins” value ([1]; Cort 10 nM, 1 h after treatment) was “increase” and the PAI-1 protein ([1]; Cort 10 nM, 3 h after treatment) was “increase”. The PAI-1 protein ([1]; Cort 1000 nM, 1 h after treatment) was “early increase”, the “tPA, P-TrkB and P-Erk1/2MAPK proteins” value ([1]; Cort 1000 nM, after 3 h treatment) was “suppression of the increase” and the “expression of PAI-1 mRNA” value (PC12 cells; qPCR) was “strongly increased”. The “expression of PAI-1 protein” value (PC12 cells; western blot) was “strongly increased”.

For O=C1S/C(=C\c2cc(O)c(O)c(O)c2)C(=O)N1Cc1ccc(Cl)c(Cl)c1 [IMD-1622, 3-(3,4-dichlorobenzyl)-5-(3,4,5-trihydroxy-benzylidene)-thiazolidine-2,4-dione], the thrombus weight (rat [2]; compared to control) is listed as “decreased”, the intimal thickening (rat [2]; rat, in vivo) is listed as “suppressed” and the rat autoimmune myocarditis (rat [3]) is listed as “suppresses”. For the same molecule, the “activity of rat PAI-1” value (rat PAI-1) was “inhibit” and the “activity of mouse PAI-1” value (mouse PAI-1) was “inhibit”.

For CCCCCc1c(-c2ccc3cc(OCc4nnn[nH]4)ccc3c2)n(Cc2ccccc2)c2ccccc12 [PAI-749, 1-benzyl-3-pentyl-2[-(1H-tetrazol-5-ylmethoxy)naphthalene-2-yl]-1Hindole], the PAI-1 activity (PAI-1) is listed as “neutralize PAI-1 activity”.

For O=C(CCCCC(=O)Nc1scc(-c2cccs2)c1C(=O)O)Nc1scc(-c2cccs2)c1C(=O)O [TM5007], the oral pharmacokinetic profile [4] is given as “not ideal”.

For O=C(COCC(=O)N1CCN(C(c2ccccc2)c2ccccc2)CC1)Nc1ccc(Cl)cc1C(=O)[O-].[Na+] [TM5275], the TGF-B1-induced lung fibrosis [5] is listed as “blocks”, the antithrombotic ability (nonhuman primates) is listed as “effective antithrombotic ability” and the oral pharmacokinetic profile [4] is listed as “improved oral pharmacokinetic properties”. For the same molecule, the antithrombotic ability (rats) was “effective antithrombotic ability”.

For O=C(O)C(=O)c1cn(Cc2ccccc2)c2ccc(-c3ccc(OC(F)(F)F)cc3)cc12 [Tiplaxtinin, 1H-indole-3-acetic acid, a-oxo-1-(phenylmethyl)-5-(4-trifluoromethoxyphenyl)], the “appearance of PTSD-like memory in Cort-treated animals” value (C57BL/6J mice; Tiplaxtinin 5 ng/side intra-hippocampal immediately after conditioning, Cort 2 mg/kg i.p., freezing tested 24 h later) was “prevented the appearance of PTSD-like memory; also recorded: normalizes traumatic memory”.

For CNCCC(Oc1ccc(C(F)(F)F)cc1)c1ccccc1 (stereo not drawn) [fluoxetine], the “benefit in PTSD over placebo” value [6] is given as “small to modest benefit”.

For Fc1ccc([C@@H]2CCNC[C@H]2COc2ccc3c(c2)OCO3)cc1 [paroxetine], the “benefit in PTSD over placebo” value [6] is listed as “small to modest benefit”.

In the case of COc1ccc(C(CN(C)C)C2(O)CCCCC2)cc1 (stereo not drawn) [venlafaxine], the “benefit in PTSD over placebo” value [6] is given as “small to modest benefit”.

For Defibrotide, the “circulating levels of plasminogen activator inhibitor type 1 (PAI-1)” value [7] is given as “reduces”.

B1: mature BDNF: recombinant human BDNF, CAS 218441-99-7 (protein, UniProt P23560 19-247, looked up)
Neurotrophic factor BDNF …: APMKEANIRGQGGLAYPGVRTHGTLESVNGPKAGSRGLTSLADTFEHVIEELLDEDQKVRPNEENNKDADLYTSRVMLSSQVPLEPPLLFLLEEYKNYLDAANMSMRVRRHSDPARRGELSVCDSISEWVTAADKKTAVDMSGGTVTVLEKVPVSKGQLKQYFYETKCNPMGYTKEGCRGIDKRHWNSQCRTTQSYVRALTMDSKKRIGWRFIRIDTSCVCTLTIKRGR
With B1 the “reversal of the effect of PAI-1 on fear memory” value (C57BL/6J mice; mature BDNF 100 ng/side concomitant with PAI-1 240 ng/side, intra-hippocampal) was “completely reversed”.
